Results on 24 compounds are retold here after patent US7517874B2 (priority 2007, dated 2009).

Experiment [1] deals with human CB1 receptor (hCB1) (Homo sapiens, UniProt P21554). As to the kind of experiment: cell-based. It counts as cell-based. Particulars: for +/− HCB1: agonist or inverse agonist at hCB1. In a few lines:
(§1)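 First, cells in IBMX-containing HEPES-buffered HBSS are raised to elevated cAMP with 2-8 μM NKH-477 for 30 min. Data are normalised to the forskolin and forskolin + 1 μM CP55,940 controls.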

In another experiment the target is T1, rat CB2 receptor (rCB2) (Rattus norvegicus, UniProt Q9QZN9).
T1 sequence (Q9QZN9 1-360): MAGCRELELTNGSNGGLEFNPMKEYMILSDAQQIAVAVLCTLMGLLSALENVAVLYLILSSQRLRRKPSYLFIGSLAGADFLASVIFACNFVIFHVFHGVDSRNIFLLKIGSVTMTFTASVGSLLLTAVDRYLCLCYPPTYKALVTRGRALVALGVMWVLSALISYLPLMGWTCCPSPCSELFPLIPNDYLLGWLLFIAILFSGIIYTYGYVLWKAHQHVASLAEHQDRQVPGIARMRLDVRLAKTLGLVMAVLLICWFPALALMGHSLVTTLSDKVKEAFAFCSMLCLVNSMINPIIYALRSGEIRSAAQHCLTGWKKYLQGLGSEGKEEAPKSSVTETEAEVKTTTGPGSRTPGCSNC
Put plainly: cell-based. It counts as cell-based. Particulars: for +/− RCB2: agonist or inverse agonist at rCB2. In a few lines:
as §1

The EC50 is the concentration giving half of the maximal effect.

Chain of human CB1 receptor (hCB1) (P21554 whole entry): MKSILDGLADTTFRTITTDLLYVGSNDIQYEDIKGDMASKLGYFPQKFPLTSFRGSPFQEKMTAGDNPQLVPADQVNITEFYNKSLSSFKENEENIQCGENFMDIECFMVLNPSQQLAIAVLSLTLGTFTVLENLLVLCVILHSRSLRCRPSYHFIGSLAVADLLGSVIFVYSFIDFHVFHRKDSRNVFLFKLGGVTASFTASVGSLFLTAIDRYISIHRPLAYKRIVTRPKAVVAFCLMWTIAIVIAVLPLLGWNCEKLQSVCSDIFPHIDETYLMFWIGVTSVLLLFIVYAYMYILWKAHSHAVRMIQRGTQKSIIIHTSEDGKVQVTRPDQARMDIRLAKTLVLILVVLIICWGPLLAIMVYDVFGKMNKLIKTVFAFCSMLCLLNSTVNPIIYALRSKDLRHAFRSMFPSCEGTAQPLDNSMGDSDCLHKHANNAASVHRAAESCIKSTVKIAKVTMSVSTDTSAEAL

With `CNC(=O)[C@@H](NC(=O)c1nc(-c2ccccc2)n2c1CN(c1cccc(Cl)n1)CC2)C(C)(C)C` [Compound 299, (S)-7-(6-chloropyridin-2-yl)-N-(3,3-dimethyl-1-(methylamino)-1-oxobutan-2-yl)-3-phenyl-5,6,7,8-tetrahydroimidazo[1,5-a]pyrazine-1-carboxamide], the “+/− HCB1” value in experiment [1] is “+”. Moreover, the “+/− RCB2” value on rat CB2 receptor (rCB2) is listed as “−”.
In the case of `CNC(=O)[C@@H](NC(=O)c1nc(-c2ccccc2)n2c1CN(c1cncc(Cl)n1)CC2)C(C)(C)C` [Compound 300, (S)-7-(6-chloropyrazin-2-yl)-N-(3,3-dimethyl-1-(methylamino)-1-oxobutan-2-yl)-3-phenyl-5,6,7,8-tetrahydroimidazo[1,5-a]pyrazine-1-carboxamide], the “+/− HCB1” value in experiment [1] is given as “+”. Moreover, the “+/− RCB2” value at rat CB2 receptor (rCB2) is “−”.
Take `CNC(=O)[C@@H](NC(=O)c1nc(-c2ccccc2)n2c1CN(c1cnccn1)CC2)C(C)(C)C` [Compound 301, (S)-N-(3,3-dimethyl-1-(methylamino)-1-oxobutan-2-yl)-3-phenyl-7-(pyrazin-2-yl)-5,6,7,8-tetrahydroimidazo[1,5-a]pyrazine-1-carboxamide]: the EC50 (in experiment [1]; on rat CB2 receptor (rCB2)) was over 10 µM each time.
As for `CNC(=O)[C@H](NC(=O)c1nc(-c2ccccc2)n2c1CN(C)CC2)C(C)(C)C` [Compound 302, (R)-N-(3,3-dimethyl-1-(methylamino)-1-oxobutan-2-yl)-7-methyl-3-phenyl-5,6,7,8-tetrahydroimidazo[1,5-a]pyrazine-1-carboxamide], the EC50 (in experiment [1]; on rat CB2 receptor (rCB2)) was over 10 µM each time.
As for `CNC(=O)[C@@H](NC(=O)c1nc(C2CCCC2)n2c1CN(C)CC2)C(C)(C)C` [Compound 303, (S)-3-cyclopentyl-N-(3,3-dimethyl-1-(methylamino)-1-oxobutan-2-yl)-7-methyl-5,6,7,8-tetrahydroimidazo [1,5-a]pyrazine-1-carboxamide], the EC50 in experiment [1] is over 10 µM. Also, the “+/− RCB2” value at rat CB2 receptor (rCB2) is listed as “+”.
On the same counts, the results for `CCCc1nc(C(=O)N[C@H](C(=O)NC)C(C)(C)C)c2n1CCN(C)C2` [Compound 304, (S)-N-(3,3-dimethyl-1-(methylamino)-1-oxobutan-2-yl)-7-methyl-3-propyl-5,6,7,8-tetrahydroimidazo[1,5-a]pyrazine-1-carboxamide] are over 10 µM and “+”.
For `CNC(=O)[C@@H](NC(=O)c1nc(C2CCCCC2)n2c1CN(C)CC2)C(C)(C)C` [Compound 305, (S)-3-cyclohexyl-N-(3,3-dimethyl-1-(methylamino)-1-oxobutan-2-yl)-7-methyl-5,6,7,8-tetrahydroimidazo[1,5-a]pyrazine-1-carboxamide] the same measures were over 10 µM and “+”.
On the same counts, the results for `CNC(=O)[C@@H](NC(=O)c1nc(CC(C)C)n2c1CN(C)CC2)C(C)(C)C` [Compound 306, (S)-N-(3,3-dimethyl-1-(methylamino)-1-oxobutan-2-yl)-3-isobutyl-7-methyl-5,6,7,8-tetrahydroimidazo[1,5-a]pyrazine-1-carboxamide] are over 10 µM and “+”.
With `CNC(=O)[C@@H](NC(=O)c1nc(CCCN2CCCCC2)n2c1CN(C)CC2)C(C)(C)C` [Compound 307, (S)-N-(3,3-dimethyl-1-(methylamino)-1-oxobutan-2-yl)-7-methyl-3-(3-(piperidin-1-yl)propyl)-5,6,7,8-tetrahydroimidazo[1,5-a]pyrazine-1-carboxamide], in experiment [1], the half-maximal effective concentration (EC50) was over 10 µM. Moreover, the “+/− RCB2” value at rat CB2 receptor (rCB2) was “+”.
For `CNC(=O)[C@@H](NC(=O)c1nc(CCCN2CCCC2)n2c1CN(C)CC2)C(C)(C)C` [Compound 308, (S)-N-(3,3-dimethyl-1-(methylamino)-1-oxobutan-2-yl)-7-methyl-3-(3-(pyrrolidin-1-yl)propyl)-5,6,7,8-tetrahydroimidazo[1,5-a]pyrazine-1-carboxamide] the same measures were over 10 µM and “−”.
With `CNC(=O)[C@@H](NC(=O)c1nc(CCCN2CCOCC2)n2c1CN(C)CC2)C(C)(C)C` [Compound 309, (S)-N-(3,3-dimethyl-1-(methylamino)-1-oxobutan-2-yl)-7-methyl-3-(3-morpholinopropyl)-5,6,7,8-tetrahydroimidazo[1,5-a]pyrazine-1-carboxamide], the concentration for a half-maximal effect (EC50) (in experiment [1]; on rat CB2 receptor (rCB2)) was over 10 µM each time.
In turn, `CCc1nc(C(=O)N[C@H](C(=O)NC)C(C)(C)C)c2n1CCN(C)C2` [Compound 310, (S)-N-(3,3-dimethyl-1-(methylamino)-1-oxobutan-2-yl)-3-ethyl-7-methyl-5,6,7,8-tetrahydroimidazo[1,5-a]pyrazine-1-carboxamide] registered an EC50 in experiment [1] of over 10 µM. For the same compound, the “+/− RCB2” value on rat CB2 receptor (rCB2) is “−”.
For the compound `CNC(=O)[C@@H](NC(=O)c1nc(-c2ccccc2)n2c1CN(C(=O)OC(C)(C)C)CCC2)C(C)(C)C` [Compound 312, (S)-tert-butyl 1-(3,3-dimethyl-1-(methylamino)-1-oxobutan-2-ylcarbamoyl)-3-phenyl-6,7-dihydro-5H-imidazo[1,5-a][1,4]diazepine-8(9H)-carboxylate], the concentration giving a half-maximal response (EC50) in experiment [1] was over 10 µM. The “+/− RCB2” value at rat CB2 receptor (rCB2) is listed as “−”.
On the same counts, the results for `CNC(=O)[C@@H](NC(=O)c1nc(-c2ccc(Cl)cc2F)n2c1CN(C(=O)OC(C)(C)C)CCC2)C(C)(C)C` [Compound 313] are over 10 µM and “−”.
In turn, `CNC(=O)[C@@H](NC(=O)c1nc(-c2ccccc2)n2c1CNCCC2)C(C)(C)C` [Compound 314, (S)-N-(3,3-dimethyl-1-(methylamino)-1-oxobutan-2-yl)-3-phenyl-6,7,8,9-tetrahydro-5H-imidazo[1,5-a][1,4]diazepine-1-carboxamide] returned an EC50 in experiment [1] of over 10 µM. The “+/− RCB2” value on rat CB2 receptor (rCB2) is given as “−”.
As to `CNC(=O)[C@@H](NC(=O)c1nc(-c2ccc(Cl)cc2F)n2c1CNCCC2)C(C)(C)C` [Compound 315, (S)-3-(4-chloro-2-fluorophenyl)-N-(3,3-dimethyl-1-(methylamino)-1-oxobutan-2-yl)-6,7,8,9-tetrahydro-5H-imidazo[1,5-a][1,4]diazepine-1-carboxamide], the EC50 (in experiment [1]; on rat CB2 receptor (rCB2)) was over 10 µM each time.
In experiment [1], `CNC(=O)[C@@H](NC(=O)c1nc(-c2ccc(C)cc2F)n2c1CNCCC2)C(C)(C)C` [Compound 316, (S)-N-(3,3-dimethyl-1-(methylamino)-1-oxobutan-2-yl)-3-(2-fluoro-4-methylphenyl)-6,7,8,9-tetrahydro-5H-imidazo[1,5-a][1,4]diazepine-1-carboxamide] showed an EC50 of over 10 µM. Further, the “+/− RCB2” value at rat CB2 receptor (rCB2) is reported as “−”.
On to `CCN1CCCn2c(-c3ccccc3)nc(C(=O)N[C@H](C(=O)NC)C(C)(C)C)c2C1` [Compound 318, (S)-N-(3,3-dimethyl-1-(methylamino)-1-oxobutan-2-yl)-8-ethyl-3-phenyl-6,7,8,9-tetrahydro-5H-imidazo[1,5-a][1,4]diazepine-1-carboxamide], for which the EC50 in experiment [1] was over 10 µM. The “+/− RCB2” value on rat CB2 receptor (rCB2) is “+”.
`CNC(=O)[C@@H](NC(=O)c1nc(-c2ccccc2)n2c1CN(C(C)C)CCC2)C(C)(C)C` [Compound 319, (S)-N-(3,3-dimethyl-1-(methylamino)-1-oxobutan-2-yl)-8-isopropyl-3-phenyl-6,7,8,9-tetrahydro-5H-imidazo[1,5-a][1,4]diazepine-1-carboxamide]: the EC50 (in experiment [1]; on rat CB2 receptor (rCB2)) was over 10 µM throughout.
`CNC(=O)[C@@H](NC(=O)c1nc(-c2ccccc2)n2c1CN(CC(C)C)CCC2)C(C)(C)C` [Compound 320, (S)-N-(3,3-dimethyl-1-(methylamino)-1-oxobutan-2-yl)-8-isobutyl-3-phenyl-6,7,8,9-tetrahydro-5H-imidazo[1,5-a][1,4]diazepine-1-carboxamide] came in with an EC50 in experiment [1] of over 10 µM. Also, at rat CB2 receptor (rCB2), the “+/− RCB2” value was “−”.
On the same counts, the results for `CNC(=O)[C@@H](NC(=O)c1nc(-c2ccccc2)n2c1CN(CC1CC1)CCC2)C(C)(C)C` [Compound 321, (S)-8-(cyclopropylmethyl)-N-(3,3-dimethyl-1-(methylamino)-1-oxobutan-2-yl)-3-phenyl-6,7,8,9-tetrahydro-5H-imidazo[1,5-a][1,4]diazepine-1-carboxamide] are over 10 µM and “−”.
On the same counts, the results for `CNC(=O)[C@@H](NC(=O)c1nc(-c2ccc(Cl)cc2F)n2c1CN(CC(C)C)CCC2)C(C)(C)C` [Compound 322, (S)-3-(4-chloro-2-fluorophenyl)-N-(3,3-dimethyl-1-(methylamino)-1-oxobutan-2-yl)-8-isobutyl-6,7,8,9-tetrahydro-5H-imidazo[1,5-a][1,4]diazepine-1-carboxamide] are over 10 µM and “−”.
`CNC(=O)[C@@H](NC(=O)c1nc(-c2ccc(C)cc2F)n2c1CN(CC1CC1)CCC2)C(C)(C)C` [Compound 323, (S)-8-(cyclopropylmethyl)-N-(3,3-dimethyl-1-(methylamino)-1-oxobutan-2-yl)-3-(2-fluoro-4-methylphenyl)-6,7,8,9-tetrahydro-5H-imidazo[1,5-a][1,4]diazepine-1-carboxamide] yielded an EC50 in experiment [1] of over 10 µM. In addition, the “+/− RCB2” value at rat CB2 receptor (rCB2) is recorded as “−”.
On the same counts, the results for `CNC(=O)[C@@H](NC(=O)c1nc(-c2ccccc2OC)n2c1CN(C)CCC2)C(C)(C)C` [Compound 325, (S)-N-(3,3-dimethyl-1-(methylamino)-1-oxobutan-2-yl)-3-(2-methoxyphenyl)-8-methyl-6,7,8,9-tetrahydro-5H-imidazo[1,5-a][1,4]diazepine-1-carboxamide] are over 10 µM and “+”.
